Data as given in patent US20090030039A1, “Piperidine Derivatives as Cxcr3 Receptor Antagonists” (priority 2006, published 2009).
Where a name gives a salt, the structure may show the parent alone.

Target: T1, human CXCR3 (Homo sapiens, UniProt P49682)
T1 construct: expressed in transfected cells; host or cells: CHO cells (membrane preparation)
T1 sequence (P49682 1-368): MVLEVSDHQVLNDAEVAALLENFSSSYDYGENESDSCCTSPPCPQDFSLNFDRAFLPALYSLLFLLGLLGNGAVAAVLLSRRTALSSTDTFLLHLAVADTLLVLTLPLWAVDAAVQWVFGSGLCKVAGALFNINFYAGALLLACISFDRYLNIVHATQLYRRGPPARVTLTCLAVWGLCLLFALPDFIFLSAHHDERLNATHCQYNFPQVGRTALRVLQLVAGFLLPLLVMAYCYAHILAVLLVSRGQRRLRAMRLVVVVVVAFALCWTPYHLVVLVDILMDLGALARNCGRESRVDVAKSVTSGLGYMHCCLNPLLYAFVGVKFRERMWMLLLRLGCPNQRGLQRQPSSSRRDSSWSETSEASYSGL
Assay: [35S]GTPγS exchange assay, CXCR3 receptor inhibition (hI-TAC-induced GTPγS-binding)
Type: biochemical
Details: -log IC50 (molar) inhibiting 50% of specific I-TAC-induced GTPγS-binding; membranes of human CXCR3-transfected CHO cells

Row | pIC50 | Structure (SMILES)
1 | 6.4 | O=C1CCC(c2ccccc2)(C2CCN(Cc3ccc(Cl)c(F)c3)CC2)C(=O)N1 (single isomer, unassigned) [Compound 41]
2 | 5.6 | CN1C(=O)CCC(c2ccccc2)(C2CCN(Cc3ccc(Br)cc3)CC2)C1=O (stereo not drawn) [Compound 125]
3 | 5.3 | O=C1CCC(c2ccc(C(=O)O)cc2)(C2CCN(Cc3ccc(Br)cc3)CC2)C(=O)N1 (stereo not drawn) [Compound 193]

Same assay, conditions: -log IC50 (molar) inhibiting 50% of specific I-TAC-induced GTPγS-binding; membranes of human CXCR3-transfected CHO cells; read-out: pIC50 (converted)

Row | IC50 | Structure (SMILES)
4 | 398 nM | O=C1CCC(c2ccccc2)(C2CCN(Cc3ccc(Cl)c(F)c3)CC2)C(=O)N1 (single isomer, unassigned) [Compound 40]
5 | 316 nM | Cl.O=C1CCC(c2ccc(F)cc2F)(C2CCN(Cc3ccc(Br)cc3)CC2)C(=O)N1 (single isomer, unassigned) [Compound 195]
6 | 2000 nM | O=C1CCC(c2cccnc2)(C2CCN(Cc3ccc(Br)cc3F)CC2)C(=O)N1 (stereo not drawn) [Compound 179]
7 | 2510 nM | O=C1CCC(c2cccnc2)(C2CCN(Cc3ccc(OC(F)(F)F)cc3)CC2)C(=O)N1 (stereo not drawn) [Compound 180]
8 | 1260 nM | O=C1CCC(c2ccncc2)(C2CCN(Cc3cc4cc(Br)ccc4o3)CC2)C(=O)N1 (stereo not drawn) [Compound 183]
9 | 1580 nM | O=C1CCC(c2cccnc2)(C2CCN(Cc3cc4cc(Br)ccc4o3)CC2)C(=O)N1 (stereo not drawn) [Compound 184]
10 | > 10000 nM | O=C1CCC(c2ccc([N+](=O)[O-])cc2)(C2CCN(Cc3ccccc3[N+](=O)[O-])CC2)C(=O)N1 (stereo not drawn) [Compound 186]
11 | 2000 nM | O=C1CCC(c2ccccc2)(C2CCN(Cc3ccc(Cl)cc3)CC2)C(=O)N1Cc1ccc(Cl)cc1 (stereo not drawn) [Compound 189]
12 | 6310 nM | O=C1CCC(c2ccc(C(=O)O)cc2)(C2CCN(Cc3ccc(F)c(Cl)c3)CC2)C(=O)N1 (stereo not drawn) [Compound 190]
13 | 5010 nM | O=C1CCC(c2ccc(C(=O)O)cc2)(C2CCN(Cc3ccc(Cl)cc3)CC2)C(=O)N1 (stereo not drawn) [Compound 191]
14 | 2510 nM | O=C1CCC(c2ccc(F)c(F)c2)(C2CCN(Cc3ccc(Cl)c(F)c3)CC2)C(=O)N1 (stereo not drawn) [Compound 192]
15 | 316 nM | Cc1cc(CN2CCC(C3(c4ccc(F)cc4F)CCC(=O)NC3=O)CC2)ccc1Br (stereo not drawn) [Compound 196]
16 | 251 nM | O=C1CCC(c2ccc(F)cc2F)(C2CCN(Cc3ccc(Br)cc3F)CC2)C(=O)N1 (stereo not drawn) [Compound 198]
17 | 251 nM | O=C1CCC(c2ccc(F)cc2F)(C2CCN(Cc3ccc(Cl)cc3)CC2)C(=O)N1 (stereo not drawn) [Compound 199]
18 | 631 nM | O=C1CCC(c2ccc(F)cc2F)(C2CCN(Cc3ccc(Cl)cc3Cl)CC2)C(=O)N1 (stereo not drawn) [Compound 200]
19 | 398 nM | O=C1CCC(c2ccc(F)cc2F)(C2CCN(Cc3ccc(Cl)c(Cl)c3)CC2)C(=O)N1 (stereo not drawn) [Compound 201]
20 | 631 nM | O=C1CCC(c2ccc(F)cc2F)(C2CCN(Cc3ccc(OC(F)F)cc3)CC2)C(=O)N1 (stereo not drawn) [Compound 205]
21 | 1260 nM | O=C1CCC(c2ccc(F)cc2F)(C2CCN(Cc3cc4cc(Br)ccc4o3)CC2)C(=O)N1 (stereo not drawn) [Compound 206]
22 | 158 nM | CC(c1ccc(Br)cc1)N1CCC(C2(c3ccc(F)cc3F)CCC(=O)NC2=O)CC1 (stereo not drawn) [Compound 208]
23 | 501 nM | CC1CC(=O)NC(=O)C1(c1ccccc1)C1CCN(Cc2ccc(Br)cc2)CC1 (stereo not drawn) [Compound 209]
24 | 1260 nM | CC(=O)N1CC(c2ccccc2)(C2CCN(Cc3ccc(Br)cc3)CC2)CCC1=O (stereo not drawn) [Compound 210]

Row | Structure (SMILES) | IC50
25 | Cl.O=C1CCC(c2ccc(F)cc2F)(C2CCN(Cc3ccc(Cl)c(F)c3)CC2)C(=O)N1 (single isomer, unassigned) [Compound 203] | 79.4 nM
26 | Cl.O=C1CCC(c2ccc(F)cc2F)(C2CCN(Cc3ccc(Cl)c(F)c3)CC2)C(=O)N1 (single isomer, unassigned) [Compound 204] | 251 nM
27 | O=C1CCC(c2ccc(F)cc2F)(C2CCN(Cc3ccc(Br)c(F)c3)CC2)C(=O)N1 (stereo not drawn) [Compound 197] | 398 nM
28 | O=C1CCC(c2ccc(F)cc2F)(C2CCN(Cc3ccc4nonc4c3)CC2)C(=O)N1 (stereo not drawn) [Compound 207] | 398 nM

Tested on: not given
Assay: not given
Details: not given

Row | melting point | Structure (SMILES)
29 | 287.8 °C | Cl.Nc1cc(CN2CCC(C3(c4ccccc4)CCC(=O)NC3=O)CC2)ccc1Cl (stereo not drawn)
30 | 244.4 to 248.3 °C | O=C1CCC(c2ccccc2)(C2CCN(Cc3ccc(Cl)c([N+](=O)[O-])c3)CC2)C(=O)N1 (stereo not drawn) (as salt: HCl) [Compound 12]
31 | 192 to 194.3 °C | O=C1CCC(c2ccccc2)(C2CCN(Cc3ccc(Cl)c(F)c3)CC2)C(=O)N1 (single isomer, unassigned) [Compound 40]
32 | 192.3 to 196.3 °C | O=C1CCC(c2ccccc2)(C2CCN(Cc3ccc(Cl)c(F)c3)CC2)C(=O)N1 (single isomer, unassigned) [Compound 41]
33 | 273.9 to 278.3 °C | Cl.O=C1CCC(c2ccc(F)cc2F)(C2CCN(Cc3ccc(Br)cc3)CC2)C(=O)N1 (single isomer, unassigned) [Compound 195]
34 | 298.1 to 303.1 °C | CN1C(=O)CCC(c2ccccc2)(C2CCN(Cc3ccc(Br)cc3)CC2)C1=O (stereo not drawn) [Compound 125]

Row | Structure (SMILES) | melting point
35 | Cl.O=C1CCC(c2ccc(F)cc2F)(C2CCN(Cc3ccc(Cl)c(F)c3)CC2)C(=O)N1 (single isomer, unassigned) [Compound 203] | 282 to 285.9 °C
36 | Cl.O=C1CCC(c2ccc(F)cc2F)(C2CCN(Cc3ccc(Cl)c(F)c3)CC2)C(=O)N1 (single isomer, unassigned) [Compound 204] | 282 to 283.8 °C
